Read-outs that look alike come from different tables or passages of the source.

Common to all, as to format: in vivo, Glycine max
In experiment [1] the test system is Maverick GLXMA (conventional soybean). In words: Greenhouse evaluation of broadleaf volunteer crop control, Maverick soybean. Particulars: for pest or weed control at 1.1 g/ha / pest or weed control at 2.2 g/ha / pest or weed control at 4.4 g/ha / pest or weed control at 8.75 g/ha / pest or weed control at 17.5 g/ha: Glycine max, 504 h, read-out: Average Percent Crop Control after Treatment, Maverick GLXMA. Here is the method: (§1) Test plants were grown in METRO-MIX® 360 (SunGro Horticulture, Bellevue, Wash.) in 132.7 square centimeters (cm^2) plastic pots for 7-21 days in a greenhouse with an approximate 15 hour (h) photoperiod which was maintained at about 23-29° C. during the day and 22-28° C. during the night. Plants were grown to the 2 to 3 leaf stage prior to applications. Both conventional soybean crops varieties, Maverick and Resnick, and herbicide resistant (HT) varieties AAD12, AAD1, and ROUNDUP® ready soybean crops were treated.
(§2) A weighed amount, determined by the highest rate to be tested, of each test compound was placed in a 25 milliliter (mL) glass vial and was dissolved in 4 mL of a 97:3 v/v (volume/volume) mixture of acetone and dimethyl sulfoxide (DMSO), which will be referred to as General Purpose Solvent (GPS), to obtain concentrated stock solutions. […] The concentrated stock solutions obtained were diluted with 20 mL of an aqueous mixture containing water, GPS, isopropyl alcohol, ATPLUS® 411F crop oil concentrate, and TRITON® X-155 surfactant in a 46:42:12:1.0:0.02 v/v ratio to obtain spray solutions containing the highest application rates. Additional application rates were obtained by serial dilution of 12 mL of the high rate solution into a solution containing 2 mL of 97:3 v/v (volume/volume) mixture of acetone and dimethyl sulfoxide (DMSO) and 10 mL of an aqueous mixture containing water, GPS, isopropyl alcohol, ATPLUS® 411F crop oil concentrate, and TRITON® X-155 surfactant in a 46:42:12:1.0:0.02 v/v ratio to obtain 1/2X, 1/4X, 1/8X and 1/16X rates of the high rate (X). Compound requirements are based upon a 12 mL application volume at a rate of 187 L/ha. Formulated compounds were applied to the plant material with an overhead Mandel track sprayer equipped with 8002E nozzles calibrated to deliver 187 L/ha over an application area of 0.503 square meters (m^2) at a spray height of 18 inches (43 cm) above the average plant canopy height. Control plants were sprayed in the same manner with the solvent blank. The treated plants and control plants were placed in a greenhouse as described above and watered by sub-irrigation to prevent wash-off of the test compounds. After 21 days, the condition of the test plants as compared with that of the control plants was determined visually and scored on a scale of 0 to 100 percent where 0 corresponds to no injury and 100 corresponds to complete kill, and results are listed in Table 1 along with active ingredients and their respective formulations. Each score in Table 1 represents an average obtained from results of three representative experiments.
(§3) Additional formulations with different 6-arylpicolinates were tested in the greenhouse on Maverick and RoundUp-ready soybean crops using the procedure described above. Each score in Table 2 represents an average obtained from results of three representative experiments.

In experiment [2] the test system is RoundUp Ready GLXMA (HT variety soybean). In words: Greenhouse evaluation of broadleaf volunteer crop control, RoundUp ready soybean. Particulars: for pest or weed control at 1.1 g/ha / pest or weed control at 2.2 g/ha / pest or weed control at 4.4 g/ha / pest or weed control at 8.75 g/ha / pest or weed control at 17.5 g/ha: Glycine max, 504 h, read-out: Average Percent Crop Control after Treatment, RoundUp Ready GLXMA. Here is the method: as §1, §2, §3

Experiment [3] has as its system ROUNDUP READY soybeans (GLXMA). As to the kind of experiment: Field evaluation with various herbicides, 30 days after treatment. Particulars: for % Crop Control: 30 Days After Treatment. The text has this:
The data was the result of conducting factorial replicated field trials (3 trials) by applying the compositions at a spray pressure of 300 kPa and a spray volume of 200 L/ha. The treated plots and control plots were visually rated blind at the specified dates after application. Ratings were based on a scale of 0-100%, as discussed above, wherein 0% indicates complete growth of the undesired vegetation and 100% indicates complete prevention/eradication of the undesired vegetation.

Where [4] appears, read: 1.1 g ae/ha, greenhouse, 2 to 3 leaf stage, after 21 days, 0 no injury, 100 complete kill.
Setting [5] is: 2.2 g ae/ha, greenhouse, 2 to 3 leaf stage, after 21 days, 0 no injury, 100 complete kill.
The mark [6] stands for this setting: 4.4 g ae/ha, greenhouse, 2 to 3 leaf stage, after 21 days, 0 no injury, 100 complete kill.
Where [7] appears, read: 8.75 g ae/ha, greenhouse, 2 to 3 leaf stage, after 21 days, 0 no injury, 100 complete kill.
The mark [8] stands for this setting: 17.5 g ae/ha, greenhouse, 2 to 3 leaf stage, after 21 days, 0 no injury, 100 complete kill.

Consider `COc1c(Cl)ccc(-c2nc(C(=O)OCc3ccccc3)c(Cl)c(N)c2F)c1F`, for which, in experiment [1], the pest or weed control at 1.1 g/ha was determined as 100%, the pest or weed control at 2.2 g/ha is 100%, the pest or weed control at 4.4 g/ha was found to be 100% and the pest or weed control at 8.75 g/ha stood at 100%. In experiment [1], the pest or weed control at 17.5 g/ha came out at 100%. Besides, in experiment [2], the pest or weed control at 1.1 g/ha was found to be 100%, the pest or weed control at 2.2 g/ha is 100%, the pest or weed control at 4.4 g/ha was 100% and the pest or weed control at 8.75 g/ha was 100%. In addition, the pest or weed control at 17.5 g/ha in experiment [2] came out at 100%.
For `Nc1cc(-c2ccc(Cl)cc2F)nc(C(=O)O)c1Cl`, the pest or weed control at 1.1 g/ha in experiment [1] (setting [4]) and in experiment [2] (setting [4]) was 100% throughout. Besides, the pest or weed control at 2.2 g/ha in experiment [1] (setting [5]) and in experiment [2] (setting [5]) was 100% each time. The pest or weed control at 4.4 g/ha in experiment [1] (setting [6]) and in experiment [2] (setting [6]) was 100% in each case. Besides, the pest or weed control at 8.75 g/ha in experiment [1] (setting [7]) and in experiment [2] (setting [7]) was 100% each time. Further, the pest or weed control at 17.5 g/ha in experiment [1] (setting [8]) and in experiment [2] (setting [8]) was 100% each time.
As to `Cc1c(Cl)ccc(-c2cc(N)c(Cl)c(C(=O)O)n2)c1F`, the results for the pest or weed control at 1.1 g/ha in experiment [1] (setting [4]) and in experiment [2] (setting [4]) were 53% and 57%, respectively. The pest or weed control at 2.2 g/ha was 82% in experiment [1] (setting [5]) and 80% in experiment [2] (setting [5]). In addition, the pest or weed control at 4.4 g/ha came out at 99% in experiment [1] (setting [6]) and 98% in experiment [2] (setting [6]). Also, the pest or weed control at 8.75 g/ha in experiment [1] (setting [7]) and in experiment [2] (setting [7]) was 100% each time. The pest or weed control at 17.5 g/ha in experiment [1] (setting [8]) and in experiment [2] (setting [8]) was 100% in each case.
As to `Cc1ccc(-c2cc(N)c(Cl)c(C(=O)O)n2)cc1`, the pest or weed control at 1.1 g/ha in experiment [1] (setting [4]) was 100%; in experiment [2] (setting [4]) it was 90%. The pest or weed control at 2.2 g/ha in experiment [1] (setting [5]) and in experiment [2] (setting [5]) was 100% throughout. Besides, the pest or weed control at 4.4 g/ha in experiment [1] (setting [6]) and in experiment [2] (setting [6]) was 100% in each case. For the same compound, the pest or weed control at 8.75 g/ha in experiment [1] (setting [7]) and in experiment [2] (setting [7]) was 100% each time. Further, the pest or weed control at 17.5 g/ha in experiment [1] (setting [8]) and in experiment [2] (setting [8]) was 100% each time.
In the case of `Nc1c(F)c(-c2ccc3c(c2)OCO3)nc(C(=O)O)c1Cl`, the values for the pest or weed control at 1.1 g/ha in experiment [1] (setting [4]) and in experiment [2] (setting [4]) were 27% and 32%, respectively. Besides, the pest or weed control at 2.2 g/ha was 42% in experiment [1] (setting [5]) and 45% in experiment [2] (setting [5]). In addition, the pest or weed control at 4.4 g/ha worked out at 58% in experiment [1] (setting [6]) and 73% in experiment [2] (setting [6]). Besides, the pest or weed control at 8.75 g/ha was 95% in experiment [1] (setting [7]) and 92% in experiment [2] (setting [7]). Also, the values for the pest or weed control at 17.5 g/ha in experiment [1] (setting [8]) and in experiment [2] (setting [8]) were 100% and 98%, respectively.
Regarding `COC(=O)c1nc(-c2ccc(Cl)cc2OC)cc(N)c1Cl`, the pest or weed control at 1.1 g/ha in experiment [1] (setting [4]) amounted to 98%; in experiment [2] (setting [4]) it was 95%. For the same compound, the pest or weed control at 2.2 g/ha in experiment [1] (setting [5]) worked out at 100%; in experiment [2] (setting [5]), 99%. Further, the pest or weed control at 4.4 g/ha in experiment [1] (setting [6]) and in experiment [2] (setting [6]) was 100% in each case. Besides, the pest or weed control at 8.75 g/ha in experiment [1] (setting [7]) and in experiment [2] (setting [7]) was 100% throughout. Further, the pest or weed control at 17.5 g/ha in experiment [1] (setting [8]) and in experiment [2] (setting [8]) was 100% in each case.
Take `CC(O)CN(CC(C)O)CC(C)O.Nc1cc(Cl)nc(C(=O)O)c1Cl` (stereo not shown) [Aminopyralid TIPA]: in experiment [3] (1.25 g ai/Ha), the “% Crop Control” value is listed as 60%.
`CCNc1nc(Cl)nc(NC(C)C)n1` [Atrazine]: the “% Crop Control” value in experiment [3] (1500 g ai/Ha + 1% J'Oil) is on record as 86.7%; in experiment [3] (1500 g ai/Ha) it was 75%.
Regarding `COc1c(Cl)ccc(-c2nc(C(=O)O)c(Cl)c(N)c2F)c1F` [Formula (III)], the “% Crop Control” value in experiment [3] (18 g ai/Ha) came to 100%. Besides, in experiment [3] (RoundUp Ready soybeans), the “herbicidal activity in genetically engineered crops as compared to other commercially known herbicides” value is given as “comparable or superior”.
Turning to `CCOc1cc(Oc2ccc(C(F)(F)F)cc2Cl)ccc1[N+](=O)[O-]` [Oxyfluorfen], the “% Crop Control” value in experiment [3] (72 g ai/Ha) is recorded as 16.7%.
Turning to `COc1cnc(OC)n2nc(NS(=O)(=O)c3c(OCC(F)F)cccc3C(F)(F)F)nc12` [Penoxsulam], in experiment [3] (18 g ai/Ha), the “% Crop Control” value worked out at 87.3%.
As for `COc1c(Cl)ccc(-c2nc(C(=O)O)c(Cl)c(N)c2F)c1F` [drawing 13], the “Average Percent Crop Control after Treatment, Maverick GLXMA” value in experiment [1] (setting [4]), in experiment [1] (setting [5]), in experiment [1] (setting [6]), in experiment [1] (setting [7]) and in experiment [1] (setting [8]) was 100% throughout. Besides, the “Average Percent Crop Control after Treatment, RoundUp Ready GLXMA” value in experiment [2] (setting [5]), in experiment [2] (setting [6]), in experiment [2] (setting [7]) and in experiment [2] (setting [8]) was 100% each time. In addition, the pest or weed control at 1.1 g/ha in experiment [2] (setting [4]) amounted to 100%.
For `COc1c(Cl)ccc(-c2cc(N)c(Cl)c(C(=O)O)n2)c1F` [drawing 15], the pest or weed control at 1.1 g/ha in experiment [1] (setting [4]) and in experiment [2] (setting [4]) was 100% each time. Moreover, the pest or weed control at 2.2 g/ha in experiment [1] (setting [5]) and in experiment [2] (setting [5]) was 100% each time. The pest or weed control at 4.4 g/ha in experiment [1] (setting [6]) and in experiment [2] (setting [6]) was 100% throughout. The pest or weed control at 8.75 g/ha in experiment [1] (setting [7]) and in experiment [2] (setting [7]) was 100% in each case. Further, the pest or weed control at 17.5 g/ha in experiment [1] (setting [8]) and in experiment [2] (setting [8]) was 100% in each case.
Regarding `COc1ncc(F)c2nc(S(=O)(=O)Nc3c(F)cccc3F)nn12` [florasulam], in experiment [3] (5 g ai/Ha + 1% J'Oil), the “% Crop Control” value is listed as 63.3%.

The values are drawn from patent US10154667B2, “Broadleaf crop control with 6-arylpicoline carboxylic acids, 2-arylpyrimidine carboxylic acids, or salts or esters thereof” (Dow AgroSciences LLC, priority 2013, dated 2018).
